Reference: patent publication US5639783A, “Ketone derivatives” (Mitsubishi Chemical Corporation, priority 1991, dated 1997)

What follows are compounds tested against T1, m-calpain (Rattus norvegicus, UniProt Q07009) (assay: Thiol protease inhibitory activity, m-calpain purified from rat brain). Settings: Table 4.
T1 construct: m-calpain was purified from rat brain; from tissue; host or cells: rat brain
T1 sequence (Q07009 20-700 limits assumed): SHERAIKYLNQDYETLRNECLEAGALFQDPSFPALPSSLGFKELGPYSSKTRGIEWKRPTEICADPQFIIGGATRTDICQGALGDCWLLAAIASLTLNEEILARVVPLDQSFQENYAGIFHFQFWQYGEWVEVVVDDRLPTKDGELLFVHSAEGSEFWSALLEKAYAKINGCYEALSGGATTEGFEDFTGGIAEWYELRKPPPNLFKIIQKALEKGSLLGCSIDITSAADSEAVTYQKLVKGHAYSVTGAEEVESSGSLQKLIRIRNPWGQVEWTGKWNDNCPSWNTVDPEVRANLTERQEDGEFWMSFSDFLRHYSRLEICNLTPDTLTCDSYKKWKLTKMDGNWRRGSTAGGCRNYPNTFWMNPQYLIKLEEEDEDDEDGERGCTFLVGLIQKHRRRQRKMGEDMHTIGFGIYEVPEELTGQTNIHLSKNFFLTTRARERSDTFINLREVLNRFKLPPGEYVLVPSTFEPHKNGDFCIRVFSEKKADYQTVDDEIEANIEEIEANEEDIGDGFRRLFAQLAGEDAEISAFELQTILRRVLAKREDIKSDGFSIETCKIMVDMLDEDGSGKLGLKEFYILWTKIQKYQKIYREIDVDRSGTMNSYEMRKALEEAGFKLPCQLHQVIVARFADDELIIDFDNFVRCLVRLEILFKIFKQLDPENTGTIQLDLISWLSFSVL
T1 sequence (Q64537 1-270 partner): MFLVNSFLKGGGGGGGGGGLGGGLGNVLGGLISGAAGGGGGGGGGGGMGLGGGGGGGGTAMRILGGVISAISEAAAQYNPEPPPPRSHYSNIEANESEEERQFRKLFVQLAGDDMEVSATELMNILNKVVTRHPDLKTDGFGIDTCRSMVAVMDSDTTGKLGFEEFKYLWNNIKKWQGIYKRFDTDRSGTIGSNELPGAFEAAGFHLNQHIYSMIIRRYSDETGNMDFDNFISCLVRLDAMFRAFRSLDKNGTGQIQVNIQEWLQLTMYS
Format: biochemical
Method: Inhibitory activity against papain (P-3125, Sigma) and cathepsin B (C-6286, Sigma) was assayed according to the method described in a literature [Biochemical Journal, 201, 189 (1982)]. Cathepsin L was purified from rat kidney according to the method in a literature [Journal of Biochemistry, 100, 35 (1986)], and the inhibitory activity against it was assayed in the same manner as described in the above literature for cathepsin B. Furthermore, m-calpain was purified from rat brain according to a known method [Journal of Biological Chemistry, 254, p. 3210 (1984)] and the inhibitory activity against it was assayed by a method described in a literature [Journal of Biological Chemistry, 259, 12489 (1984)]. It is evident from Tables 3 and 4 that the compounds of the present invention have a potent inhibitory activity against thiol proteases such as papain, cathepsin B, cathepsin L or m-calpain.
For `CCCC[C@H](NC(=O)[C@H](CC(C)C)NC(=O)c1ccccc1F)C(=O)CSCc1ccco1` [55 (No. 117), (s)-3-[(s)-2-(2-fluorobenzoylamino)-4-methylvalerylamino]-1-furfurylthio-2-heptanone], the IC50 was 1.5 µM. Compound `CCCC[C@H](NC(=O)[C@H](CC(C)C)NC(=O)c1ccc(C)cc1)C(=O)CSCc1ccco1` [71 (No. 142), (s)-1-furfurylthio-3-[(s)-4-methyl-2-(4-toluoylamino)valerylamino]-2-heptanone] has an IC50 of 4.2 µM. Work on `CCCC[C@H](NC(=O)[C@H](CC(C)C)NC(=O)OCc1ccccc1)C(=O)CSCc1cccnc1` [106 (No. 228), (s)-3-((s)-2-benzyloxycarbonylamino-4-methylvalerylamino)-1-(3-pyridylmethylthio)-2-heptanone] yielded an IC50 of 3.1 µM. Compound `CCCC[C@H](NC(=O)[C@H](CC(C)C)NC(=O)COc1ccccc1OC)C(=O)CSCc1ccco1` [47 (No. 102), (s)-1-furfurylthio-3-[(s)-2-(2-methoxyphenoxyacetylamino)-4-methylvalerylamino]-2-heptanone] has an IC50 of 1.3 µM. With `CCCC[C@H](NC(=O)[C@H](CC(C)C)NC(=O)OCc1cccc(C#N)c1)C(=O)CSCc1ccco1` [26 (No. 57), (s)-3-[(s)-2-(3-cyanobenzyloxycarbonylamino)-4-methylvalerylamino]-1-furfurylthio-2-heptanone] the IC50 was 2.8 µM. For `CCCC[C@H](NC(=O)[C@H](CC(C)C)NC(=O)c1cc2cccc(F)c2o1)C(=O)CSCc1ccco1` [93 (No. 182), (s)-3-[(s)-2-(7-fluoro-2-benzofuranylcarbonylamino)-4-methylvalerylamino]-1-furfurylthio-2-heptanone], the IC50 was 7.8 µM. `CCCC[C@H](NC(=O)[C@H](CC(C)C)NC(=O)c1ccc(OC)cc1)C(=O)CSCc1ccco1` [79 (No. 153), (s)-1-furfurylthio-3-[(s)-2-(4-methoxybenzoylamino)-4-methylvalerylamino]-2-heptanone] showed an IC50 of 1.9 µM. `CCCC[C@H](NC(=O)[C@H](CC(C)C)NC(=O)OCc1ccccc1)C(=O)CSCc1ccncc1` [107 (No. 230), (s)-3-((s)-2-benzyloxycarbonylamino-4-methylvalerylamino)-1-(4-pyridylmethylthio)-2-heptanone] showed an IC50 of 4.2 µM. Compound `CCCC[C@H](NC(=O)[C@H](CC(C)C)NC(=O)c1ccc(F)cc1)C(=O)CSCc1ccco1` [57 (No. 119), (s)-3-[(s)-2-(4-fluorobenzoylamino)-4-methylvalerylamino]-1-furfurylthio-2-heptanone] has an IC50 of 5.3 µM. `CC(C)C[C@H](NC(=O)OCc1ccccc1)C(=O)N1CCC[C@H]1C(=O)CSCc1ccco1` [Ref. Ex. No. 3, (s)-1-((s)-2-benzyloxycarbonylamino-4-methylvaleryl)-2-furfurylthioacetylpyrrolidine, reference compound] showed an IC50 greater than 100 µM. For `CCCC[C@H](NC(=O)[C@H](CC(C)C)NC(=O)c1ccccc1C)C(=O)CSCc1ccco1` [69 (No. 140), (s)-1-furfurylthio-3-[(s)-4-methyl-2-(2-toluoylamino)valerylamino]-2-heptanone], the IC50 was 5 µM. Compound `CCCC[C@H](NC(=O)[C@H](CC(C)C)NC(=O)c1cc(F)cc(F)c1)C(=O)CSCc1ccco1` [63 (No. 125), (s)-3-[(s)-2-(3,5-difluorobenzoylamino)-4-methylvalerylamino]-1-furfurylthio-2-heptanone] has an IC50 of 5.5 µM. `CCCC[C@H](NC(=O)[C@H](CC(C)C)NC(=O)c1c(F)ccc(F)c1F)C(=O)CSCc1ccco1` [65 (No. 128), (s)-1-furfurylthio-3-[(s)-4-methyl-2-(2,3,6-trifluorobenzoylamino)valerylamino]-2-heptanone] gave an IC50 of 5 µM. With `CCCC[C@H](NC(=O)[C@H](CC(C)C)NC(=O)c1cccc(F)c1)C(=O)CSCc1ccco1` [56 (No. 118), (s)-3-[(s)-2-(3-fluorobenzoylamino)-4-methylvalerylamino]-1-furfurylthio-2-heptanone] the IC50 was 5.2 µM. With `CCCC[C@H](NC(=O)[C@H](CC(C)C)NC(=O)c1ccc(F)cc1F)C(=O)CSCc1ccco1` [59 (No. 121), (s)-3-[(s)-2-(2,4-difluorobenzoylamino)-4-methylvalerylamino]-1-furfurylthio-2-heptanone] the IC50 was 4.2 µM. Work on `CCCC[C@H](NC(=O)[C@H](CC(C)C)NC(=O)C=Cc1ccc(OC)cc1)C(=O)CSCc1ccco1` [84 (No. 165), (s)-1-furfurylthio-3-[(s)-2-(4-methoxycinnamoylamino)-4-methylvalerylamino]-2-heptanone] yielded an IC50 of 2.1 µM. Work on `CC(C)C[C@H](NC(=O)OCc1ccccc1)C(=O)N[C@@H](Cc1ccccc1)C(=O)CSCc1ccco1` [139 (No. 297), (s)-3-((s)-2-benzyloxycarbonylamino-4-methylvalerylamino)-1-furfurylthio-4-phenyl-2-butanone] yielded an IC50 of 4.5 µM. Work on `CCCC[C@H](NC(=O)[C@H](CC(C)C)NC(=O)C=Cc1ccc(OC)cc1OC)C(=O)CSCc1ccco1` [85 (No. 166)] yielded an IC50 of 1.3 µM. `CCCC[C@H](NC(=O)[C@H](CC(C)C)NC(=O)COc1ccc(OC)cc1)C(=O)CSCc1ccco1` [48 (No. 104), (s)-1-furfurylthio-3-[(s)-2-(4-methoxyphenoxyacetylamino)-4-methylvalerylamino]-2-heptanone] showed an IC50 of 1 µM. Compound `CCCC[C@H](NC(=O)[C@H](CC(C)C)NC(=O)c1cc(OC)cc(OC)c1)C(=O)CSCc1ccco1` [80 (No. 155), (s)-3-[(s)-2-(3,5-dimethoxybenzoylamino)-4-methylvalerylamino]-1-furfurylthio-2-heptanone] has an IC50 of 4.2 µM. For `CCCC[C@H](NC(=O)[C@H](CC(C)C)NC(=O)OCc1ccccc1)C(=O)CSCc1ccccn1` [105 (No. 226), (s)-3-((s)-2-benzyloxycarbonylamino-4-methylvalerylamino)-1-(2-pyridylmethylthio)-2-heptanone], the IC50 was 1.3 µM. `CCCC[C@H](NC(=O)[C@H](CC(C)C)NC(=O)c1cc(F)ccc1F)C(=O)CSCc1ccco1` [60 (No. 122), (s)-3-[(s)-2-(2,5-difluorobenzoylamino)-4-methylvalerylamino]-1-furfurylthio-2-heptanone] was tested, and the IC50 was 1.3 µM. For `CCCC[C@H](NC(=O)[C@H](CC(C)C)NC(=O)c1cc(F)c(F)c(F)c1)C(=O)CSCc1ccco1` [66 (No. 130), (s)-1-furfurylthio-3-[(s)-4-methyl-2-(3,4,5-trifluorobenzoylamino)valerylamino]-2-heptanone], the IC50 was 1.4 µM. Compound `CCCC[C@H](NC(=O)[C@H](CC(C)C)NC(=O)c1ccc(F)c(F)c1)C(=O)CSCc1ccco1` [62 (No. 124), (s)-3-[(s)-2-(3,4-difluorobenzoylamino)-4-methylvalerylamino]-1-furfurylthio-2-heptanone] has an IC50 of 4.3 µM. With `CCCC[C@H](NC(=O)[C@H](CC(C)C)NC(=O)C1CCCCC1)C(=O)CSCc1ccco1` [29 (No. 65), (s)-3-((s)-2-cyclohexylcarbonylamino-4-methylvalerylamino)-1-furfurylthio-2-heptanone] the IC50 was 3.6 µM. `CCCC[C@H](NC(=O)[C@H](CC(C)C)NC(=O)c1ccc(F)c(F)c1F)C(=O)CSCc1ccco1` [64 (No. 126), (s)-1-furfurylthio-3-[(s)-4-methyl-2-(2,3,4-trifluorobenzoylamino)valerylamino]-2-heptanone] showed an IC50 of 4.3 µM. In the case of `CC(C)C[C@H](NC(=O)OCc1ccccc1)C(=O)N[C@@H](Cc1ccccc1)C(=O)CSCc1ccc(Cl)s1` [183 (No. 423), (s)-3-((s)-2-benzyloxycarbonylamino-4-methylvalerylamino)-1-(5-chloro-2-thienylmethylthio)-4-phenyl-2-butanone], the IC50 is reported as 9.6 µM. `CCCC[C@H](NC(=O)[C@H](CC(C)C)NC(=O)c1c(F)cccc1F)C(=O)CSCc1ccco1` [61 (No. 123), (s)-3-[(s)-2-(2,6-difluorobenzoylamino)-4-methylvalerylamino]-1-furfurylthio-2-heptanone] gave an IC50 of 1.9 µM. `CCCC[C@H](NC(=O)[C@H](CC(C)C)NC(=O)c1ccc(C(=O)OC)cc1)C(=O)CSCc1ccco1` [81 (No. 157), (s)-1-furfurylthio-3-[(s)-2-(4-methoxycarbonylbenzoylamino)-4-methylvalerylamino]-2-heptanone] gave an IC50 of 3.4 µM.
